Data reported in patent US20160136138A1, “DRUG FOR TREATMENT OF NONALCOHOLIC FATTY LIVER DISEASE” (KOWA COMPANY, LTD., priority 2013, published 2016).

What was measured:
[1] = test system: LDL receptor knockout mice NASH model; experiment: Western diet-fed LDL receptor knockout mice NASH model; format: in vivo; settings: 12 weeks, vs control
Source text: Effects on Western diet-fed LDL receptor knockout mice (Non Patent Document 4), which are known to develop fatty liver and hepatic inflammation, characteristic symptoms of NASH were examined. […] Male LDL receptor knockout mice ([…], Jackson Laboratories) were used in the experiment. Beginning at around 8 weeks of age, the mice were freely fed with Teklad Custom Research Diet (TD.88137, Harlan Teklad) as a Western diet for 13 weeks to develop NASH. • 2) Grouping: After 1 week of the Western diet feeding, the mice were subjected to blood sampling and weighing. The mice were divided into a control group (0.5% methyl cellulose aqueous solution), a Compound A 0.5 mg/kg administration group, and a fenofibrate 100 mg/kg administration group in such a way that there was no difference in plasma lipid level and weight between the groups. […] The administration period was 12 weeks. After the administration was completed, the livers were removed from the mice under pentobarbital sodium (50 mg/kg) anesthesia. The livers were fixed with paraformaldehyde and then subjected to the preparation of hematoxylin-eosin stained samples and immunostained samples for CD68 detection. In a blind study setting, using the hematoxylin-eosin stained samples, ballooning of hepatocytes was scored based on the following criteria (Kleiner et al. Hepatology 41, 1313-21, 2005). No balloon cells: 0 Few balloon cells: 1 Many balloon cells or ballooning: 2 The CD68 positive area in liver was measured with an image analysis system (WinROOF) in a blind study. The statistical analysis was performed using Stat […] Information Technology Inc.) (Ver. 1.1). Dunnett's test (N=14-15) was used for comparison with the control group, in which a significant difference with p<0.05 is indicated by the symbol *, and a significant difference with p<0.001 is indicated by the symbol ***.

[2] = test system: KK-A^y mice fed with an MCD diet; experiment: NASH model using KK-A^y mice fed with methionine-choline-deficient diet; format: in vivo; settings: Compound A 0.25 mg/kg mixed in MCD diet (0.00026%), 16 weeks; scale 0 to 3
Experimental: Effects on experimental animals, KK-A^y mice fed with a methionine-choline-deficient diet (MCD diet), which are known to develop fatty liver, a characteristic symptom of NASH (Nakano S. et al., Hepatol Res., 38(10), 1026-39, 2008) were examined.
As in Example 1, this experiment was conducted using (R)-2-[3-[[N-(benzoxazol-2-yl)-N-3-(4-methoxyphenoxy)propyl ]aminomethyl]phenoxy]butyric acid (Compound A), which is disclosed as Example 85 in Patent Document 1 listed above.
Male KK-A^y mice (KK-A^y/TaJc1, CLEA Japan, Inc.) were used in the experiment. Beginning at around 12 weeks of age, the mice were freely fed with an MCD diet for 16 weeks to develop NASH. • 2) Grouping:
The mice were divided into a normal diet group, a control group (fed with an MCD diet), a Compound A 0.25 mg/kg administration group, and a bezafibrate 60 mg/kg administration group in such a way that there was no difference in weight between the groups. • 3) Drug administration:
The doses were mixed in the feed. The control group was fed with an MCD diet containing no drug. […]
After the administration was completed, the livers were removed from the mice under pentobarbital sodium (50 mg/kg) anesthesia. […] Depending on the grade, the fatty liver was scored on a scale of 0 to 3 based on the following criteria. […]

SMILES | CD68 positive area in liver, reduction rate ([1]; fenofibrate 100 mg/kg orally once a day) | CD68 positive area in liver, reduction rate ([1]; Compound A 0.5 mg/kg orally once a day) | ballooning of hepatocytes (score) ([1]; Compound A 0.5 mg/kg orally once a day, Dunnett's test) | steatosis score [2]
CC(C)OC(=O)C(C)(C)Oc1ccc(C(=O)c2ccc(Cl)cc2)cc1 [fenofibrate, reference compound] | 73% | – | – | –
CC[C@@H](Oc1cccc(CN(CCCOc2ccc(OC)cc2)c2nc3ccccc3o2)c1)C(=O)O [Compound A, (R)-2-[3-[[N-(benzoxazol-2-yl)-N-3-(4-methoxyphenoxy)propyl]aminomethyl]phenoxy]butyric acid] | – | 81% | significant suppression of ballooning of hepatocytes | 0
